Assays:
[1] = tested on: non-small cell lung cancer; assay: anticancer activity in vitro (SRB, MTT), non-small cell lung cancer; format: cell-based; settings: action time about 72 h
Experimental: (§1) Antitumor activity tests in vitro and in vivo are carried out to the parital compounds prepared from the above examples. Wherein the method of SRB, MTT is used in vitro, and the action time is about 72 h. Inhibitory effects of the compounds on the growth of mouse Conlon26 cancer are shown in Table 2, inhibitory effects of the compounds on the growth of mouse S180 sarcoma are shown in Table 3.

[2] = tested on: colon cancer HT-29; assay: anticancer activity in vitro (SRB, MTT), colon cancer HT-29; format: cell-based; settings: Homo sapiens, action time about 72 h
Experimental: as §1

[3] = tested on: human liver cancer Bel-7402; assay: anticancer activity in vitro (SRB, MTT), human liver cancer Bel-7402; format: cell-based; settings: action time about 72 h
Experimental: as §1

[4] = tested on: lymph cancer Ramos; assay: anticancer activity in vitro (SRB, MTT), lymph cancer Ramos; format: cell-based; settings: Homo sapiens, action time about 72 h
Experimental: as §1

[5] = tested on: four different cancer cells; assay: antitumor activity in vitro, summary over the four cancer cells of Table 1; format: cell-based; settings: summary of Table 1
Experimental: as §1
Compared with compound I, compound XX has better antitumor effects.

[6] = tested on: mouse Colon26 cancer; assay: inhibitory effects on the growth of mouse Colon26 cancer in vivo; settings: for End body weight / Inhibition rate / Tumor removed body weight / Tumor weight / Initial body weight: Colon26 mice; for Initial body weight: baseline
Experimental: as §1

[7] = tested on: mouse S180 sarcoma; assay: inhibitory effects on the growth of mouse S180 sarcoma in vivo; settings: for End body weight / Inhibition rate / Tumor removed body weight / Tumor weight / Initial body weight: S180 mice; for Initial body weight: baseline
Experimental: as §1

| SMILES | IC50 [1] | IC50 [2] | IC50 [3] | IC50 [4] | antitumor activity to four different cancer cells (in words) [5] | End body weight ([6]; 100 mg/kg p.o.) | Inhibition rate ([6]; 100 mg/kg p.o.) | Tumor removed body weight ([6]; 100 mg/kg p.o.) | Tumor weight ([6]; 100 mg/kg p.o.) | Initial body weight ([6]; 100 mg/kg p.o.) | End body weight ([6]; 150 mg/kg p.o.) | Inhibition rate ([6]; 150 mg/kg p.o.) | Tumor removed body weight ([6]; 150 mg/kg p.o.) | Tumor weight ([6]; 150 mg/kg p.o.) | Initial body weight ([6]; 150 mg/kg p.o.) | End body weight ([7]; 100 mg/kg p.o.) | Inhibition rate ([7]; 100 mg/kg p.o.) | Tumor removed body weight ([7]; 100 mg/kg p.o.) | Tumor weight ([7]; 100 mg/kg p.o.) | Initial body weight ([7]; 100 mg/kg p.o.) | other results |
| --- | --- | --- | --- | --- | --- | --- | --- | --- | --- | --- | --- | --- | --- | --- | --- | --- | --- | --- | --- | --- | --- |
| CNc1nc(Nc2ccc3ncccc3c2)nc2[nH]cnc12 [Compound VII] | 6.65 µM | 4.01 µM | 0.23 µM | 1.27 µM | higher antitumor activity |  |  |  |  |  |  |  |  |  |  |  |  |  |  |  |  |
| c1ccc(Nc2nc(NC3CC3)c3nc[nH]c3n2)nc1 [Compound XXVIII] | 61.4 µM | 81.4 µM | 80.2 µM | 51.9 µM |  |  |  |  |  |  |  |  |  |  |  |  |  |  |  |  |  |
| COc1cccc2c1C(=O)c1c(O)c3c(c(O)c1C2=O)C[C@@](O)(C(=O)CO)C[C@@H]3O[C@H]1C[C@H](N)[C@H](O)[C@H](C)O1 [ADR, adriamycin, reference compound] | 0.05 µM | 0.38 µM | 0.02 µM | 0.19 µM |  |  |  |  |  |  |  |  |  |  |  |  |  |  |  |  |  |
| CN(C)c1nc(Nc2ccc3ncccc3c2)nc2[nH]cnc12 [Compound XX] |  |  |  |  |  | 18.74 g | 72.31% | 18.23 g | 0.51 g | 19.64 g | 18.68 g | 79.47% | 18.31 g | 0.38 g | 19.90 g | 16.53 g | 72.19% | 15.90 g | 0.63 g | 19.96 g | End body weight ([7]; 200 mg/kg p.o.): 16.80 g; Inhibition rate ([7]; 200 mg/kg p.o.): 73.38%; Tumor removed body weight ([7]; 200 mg/kg p.o.): 16.20 g; Tumor weight ([7]; 200 mg/kg p.o.): 0.61 g; Initial body weight ([7]; 200 mg/kg p.o.): 19.58 g |
| c1cnc2ccc(Nc3nc(N4CCCC4)c4nc[nH]c4n3)cc2c1 [Compound IV] | 2.28 µM | 0.38 µM | 0.67 µM | 0.67 µM | the best | 19.32 g | 33.31% | 18.10 g | 1.22 g | 20.09 g | 18.41 g | 54.45% | 17.57 g | 0.83 g | 20.10 g | 20.77 g | 31.95% | 19.22 g | 1.55 g | 18.99 g | End body weight ([7]; 200 mg/kg p.o.): 19.12 g; Inhibition rate ([7]; 200 mg/kg p.o.): 55.37%; Tumor removed body weight ([7]; 200 mg/kg p.o.): 18.10 g; Tumor weight ([7]; 200 mg/kg p.o.): 1.02 g; Initial body weight ([7]; 200 mg/kg p.o.): 19.49 g |
| c1cnc2ccc(Nc3nc(N4CCNCC4)c4nc[nH]c4n3)cc2c1 [Compound XXI] | 6.27 µM | 2.74 µM | 2.33 µM | 2.33 µM | higher antitumor activity |  |  |  |  |  |  |  |  |  |  |  |  |  |  |  |  |
| C=CCNc1nc(Nc2ccc3ncccc3c2)nc2[nH]cnc12 [Compound I] | 3.61 µM | 8.61 µM | 1.58 µM | 5.78 µM | higher antitumor activity | 18.15 g | 62.25% | 17.46 g | 0.69 g | 19.47 g | 17.96 g | 76.52% | 17.26 g | 0.43 g | 21.10 g | 18.32 g | 68.93% | 17.61 g | 0.71 g | 19.74 g | inhibitory effects on mouse Colon26 cancer (in words) ([6]; 100 mg/kg dosage): better inhibitory effects; inhibitory effects on mouse S180 sarcoma (in words) ([7]; 100 mg/kg dosage): better inhibitory effects; End body weight ([7]; 200 mg/kg p.o.): 16.04 g; Inhibition rate ([7]; 200 mg/kg p.o.): 70.21%; Tumor removed body weight ([7]; 200 mg/kg p.o.): 15.36 g; Tumor weight ([7]; 200 mg/kg p.o.): 0.68 g; Initial body weight ([7]; 200 mg/kg p.o.): 18.97 g |
| O=[N+]([O-])c1ccc(Nc2nc(NC3CC3)c3nc[nH]c3n2)cc1 [Compound XXX] | 11.1 µM | > 100 µM | > 100 µM | > 100 µM |  |  |  |  |  |  |  |  |  |  |  |  |  |  |  |  |  |
| COc1cc(Nc2nc(NC3CC3)c3nc[nH]c3n2)cc2cccnc12 [Compound XXIII] | 13.2 µM | 5.72 µM | 5.91 µM | 2.63 µM |  |  |  |  |  |  |  |  |  |  |  |  |  |  |  |  |  |
